{"source": "paper PMC8113538", "about": "“Acute toxicity analysis of an inhibitor of BCL2, Disarib, in rats” (Scientific Reports, 2021)", "key": {"Wistar rats [1]": {"test_system": "Wistar rats", "assay": "Single-dose acute toxicity / LD50 determination with general observation", "format": "in vivo, Wistar rats (Rattus norvegicus)", "protocol": "All the studies were designed according to the guidelines of the Central Drug Standard Control Organization (Schedule-Y-CDSCO, Appendix III), India (https://cdsco.gov.in/opencms/opencms/en/Drugs/New-Drugs/). Single-dose toxicity analysis was performed in male Wistar rats. Animals were segregated in groups of five, and Disarib was administered using oral gavage (100, 1000, 2000 mg/kg b. wt.). Carboxymethyl cellulose, used for preparing Disarib, served as vehicle control to feed control animals. Mortality, general appearance, and behavior were initially observed for 24 h. Animals were further observed for 14 days and were further subjected to toxicity analysis.\nThe median lethal dose was determined in male Wistar rats. […] Disarib was orally administered after making solution using carboxymethyl cellulose (100, 1000, 2000 mg/kg), and lethality was evaluated over 14 days after treatment. Carboxymethyl cellulose treated animals served as vehicle control.\nGeneral cage-side examination of the treated and control animals were performed every day during the experiment. General behavior, appearance, skin, hairs, secretion (lachrymation), and death were evaluated daily, according to the guidelines of CDSCO, India[41],[42].\nBody weight was recorded on every 4th day from the date of administration of Disarib up to […]. Food and water consumption were monitored every day from the date of administration of the compound. During the present study, on every alternate days ~ 250 g food pellet and ~ 500 ml water were given to each cage (control and treatment groups)."}, "BCL-xL": {"test_system": "BCL-xL", "design": "method as in PMID 28223017, PMID 27693384", "conditions": "cited from earlier work"}, "[2]": {"test_system": "interaction of BCL2 with BAK", "design": "method as in PMID 28223017", "conditions": "cited from earlier work"}, "[3]": {"assay": "In vitro stability of Disarib in plasma (HPLC)", "format": "in vitro ADME, rats", "conditions": "80% plasma diluted in PBS; 37 °C; 0, 2, 4, 6 h; HPLC peak", "protocol": "The stability of Disarib (100 μM) was investigated in phosphate-buffered saline (PBS) and in plasma. The blood was collected from rats by heart puncture, and plasma was separated for the study. After the addition of Disarib into plasma or PBS, the mixture was incubated at 37 °C in water bath[25],[26]. The samples were then collected at different time points, 0, 2, 4, and 6 h, mixed manually with acetonitrile (1:1), and analyzed on HPLC[27],[40]. The values plotted represent the mean of three independent experiments. The samples were analyzed by HPLC using the Shimadzu HPLC system. LC was carried out on the C18 analytical column. The mobile phase was the gradient of acetonitrile and water. Disarib specific peaks were detected at 232 nm. The injection volume was 20 μl, and the flow rate was 1.2 ml/min. The standard curves were constructed by plotting the peak area vs. concentration of Disarib[40]."}, "Wistar rats [4]": {"test_system": "Wistar rats", "assay": "Haematological analysis after single oral dose", "format": "in vivo, Wistar rats (Rattus norvegicus)", "conditions": "for platelet count vs control / Eosinophils / MCH (mean corpuscular haemoglobin) / MCHC (mean corpuscular haemoglobin concentration) / MCV (mean cell volume) / Monocytes / PCV (packed cell volume): Wistar rats", "protocol": "After 14 days of Disarib treatment, two animals from each group were sacrificed using CO2 asphyxiation, and blood was collected in EDTA-coated vials by heart puncture. Red blood cells (RBC), white blood cells (WBC), platelet counts (PLT), packed cell volume (PCV), hemoglobin (HGB), mean cell volume (MCV), mean corpuscular hemoglobin (MCH), mean corpuscular hemoglobin concentration (MCHC), lymphocytes, neutrophils, eosinophils and monocytes were analyzed as described before[28],[31],[43]. Analysis of blood samples was performed at Rohana Veterinary Diagnostic Lab, Bangalore, India."}, "[5]": {"design": "method as in PMID 27693384", "conditions": "mice, cited from earlier work"}, "[6]": {"test_system": "interaction of BCL2 with BAX", "design": "method as in PMID 28223017", "conditions": "cited from earlier work"}, "mice tumor models": {"test_system": "mice tumor models", "conditions": "cited from earlier work"}, "[7]": {"conditions": "100 mg/kg oral, day 14, animal a"}, "[8]": {"conditions": "100 mg/kg oral, day 14, animal b"}, "[9]": {"conditions": "1000 mg/kg oral, day 14, animal a"}, "[10]": {"conditions": "1000 mg/kg oral, day 14, animal b"}, "[11]": {"conditions": "2000 mg/kg oral, day 14, animal a"}, "[12]": {"conditions": "2000 mg/kg oral, day 14, animal b"}, "[13]": {"conditions": "Wistar rats, 100, 1000, 2000 mg/kg oral, day 14"}}, "data": [{"smiles": "O=C1Nc2ccccc2/C1=C/c1c(-c2ccc(Br)cc2)nc2sc(Cc3ccc(Cl)cc3)nn12", "note": "[Disarib]", "values": [{"measurement": "food and water consumption", "setting": "Wistar rats [1]; Wistar rats, 100, 1000, 2000 mg/kg oral, assessed daily", "result": "no difference in eating and drinking habits"}, {"measurement": "cage-side signs (behavior, appearance, lachrymation, locomotion, hair, skin)", "setting": "Wistar rats [1]; Wistar rats, 100, 1000, 2000 mg/kg oral, daily examination", "result": "comparable to the vehicle control group"}, {"measurement": "body weight", "setting": "Wistar rats [1]; Wistar rats, 100, 1000, 2000 mg/kg oral, weighed every 4 days up to 32 days", "result": "gradual increase in body weight of the animals, both in control and treated groups"}, {"measurement": "mortality and visible signs of toxicity", "setting": "Wistar rats [1]; Wistar rats, highest dose 2000 mg/kg b. wt. oral", "result": "did not cause mortality or any visible sign of toxicity"}, {"measurement": "Maximum Tolerated Dose (MTD)", "setting": "Wistar rats [1]; Wistar rats, single oral dose, estimated", "result": "> 2000", "unit": "mg/kg"}, {"measurement": "LD50", "setting": "Wistar rats [1]; male Wistar rats, single oral dose, 14 days observation", "result": "> 2000", "unit": "mg/kg b. wt"}, {"measurement": "interaction with BCL-xL", "setting": "BCL-xL", "result": "not with other antiapoptotic proteins such as BCL-xL"}, {"measurement": "disruption of BCL2-BAK interaction", "setting": "[2]", "result": "disruption of the interaction of BCL2 with its proapoptotic partner BAK"}, {"measurement": "stability in plasma", "setting": "[3]", "result": "gradually decreased in plasma with increasing time"}, {"measurement": "platelet count vs control", "setting": "Wistar rats [4]; 100 mg/kg oral, day 14", "result": "such a difference was not observed"}, {"measurement": "Eosinophils", "setting": "Wistar rats [4]; [7]", "result": 1.0, "unit": "%"}, {"measurement": "MCH (mean corpuscular haemoglobin)", "setting": "Wistar rats [4]; [7]", "result": 21.9, "unit": "pg"}, {"measurement": "MCHC (mean corpuscular haemoglobin concentration)", "setting": "Wistar rats [4]; [7]", "result": 36.5, "unit": "%"}, {"measurement": "MCV (mean cell volume)", "setting": "Wistar rats [4]; [7]", "result": 60.2, "unit": "fL"}, {"measurement": "Monocytes", "setting": "Wistar rats [4]; [7]", "result": 3.5, "unit": "%"}, {"measurement": "PCV (packed cell volume)", "setting": "Wistar rats [4]; [7]", "result": 40.0, "unit": "%"}, {"measurement": "Eosinophils", "setting": "Wistar rats [4]; [8]", "result": 1.2, "unit": "%"}, {"measurement": "MCH (mean corpuscular haemoglobin)", "setting": "Wistar rats [4]; [8]", "result": 22.0, "unit": "pg"}, {"measurement": "MCHC (mean corpuscular haemoglobin concentration)", "setting": "Wistar rats [4]; [8]", "result": 33.0, "unit": "%"}, {"measurement": "MCV (mean cell volume)", "setting": "Wistar rats [4]; [8]", "result": 66.6, "unit": "fL"}, {"measurement": "Monocytes", "setting": "Wistar rats [4]; [8]", "result": 4.2, "unit": "%"}, {"measurement": "PCV (packed cell volume)", "setting": "Wistar rats [4]; [8]", "result": 38.4, "unit": "%"}, {"measurement": "platelet count vs control", "setting": "Wistar rats [4]; 1000 mg/kg b. wt. oral, day 14", "result": "marginal variation"}, {"measurement": "Eosinophils", "setting": "Wistar rats [4]; [9]", "result": 1.0, "unit": "%"}, {"measurement": "MCH (mean corpuscular haemoglobin)", "setting": "Wistar rats [4]; [9]", "result": 21.2, "unit": "pg"}, {"measurement": "MCHC (mean corpuscular haemoglobin concentration)", "setting": "Wistar rats [4]; [9]", "result": 32.3, "unit": "%"}, {"measurement": "MCV (mean cell volume)", "setting": "Wistar rats [4]; [9]", "result": 65.7, "unit": "fL"}, {"measurement": "Monocytes", "setting": "Wistar rats [4]; [9]", "result": 3.2, "unit": "%"}, {"measurement": "PCV (packed cell volume)", "setting": "Wistar rats [4]; [9]", "result": 40.2, "unit": "%"}, {"measurement": "Eosinophils", "setting": "Wistar rats [4]; [10]", "result": 1.2, "unit": "%"}, {"measurement": "MCH (mean corpuscular haemoglobin)", "setting": "Wistar rats [4]; [10]", "result": 21.9, "unit": "pg"}, {"measurement": "MCHC (mean corpuscular haemoglobin concentration)", "setting": "Wistar rats [4]; [10]", "result": 27.9, "unit": "%"}, {"measurement": "MCV (mean cell volume)", "setting": "Wistar rats [4]; [10]", "result": 78.6, "unit": "fL"}, {"measurement": "Monocytes", "setting": "Wistar rats [4]; [10]", "result": 8.1, "unit": "%"}, {"measurement": "PCV (packed cell volume)", "setting": "Wistar rats [4]; [10]", "result": 36.9, "unit": "%"}, {"measurement": "platelet count vs control", "setting": "Wistar rats [4]; 2000 mg/kg oral, day 14", "result": "such a difference was not observed"}, {"measurement": "Eosinophils", "setting": "Wistar rats [4]; [11]", "result": 1.0, "unit": "%"}, {"measurement": "MCH (mean corpuscular haemoglobin)", "setting": "Wistar rats [4]; [11]", "result": 21.2, "unit": "pg"}, {"measurement": "MCHC (mean corpuscular haemoglobin concentration)", "setting": "Wistar rats [4]; [11]", "result": 33.4, "unit": "%"}, {"measurement": "MCV (mean cell volume)", "setting": "Wistar rats [4]; [11]", "result": 63.7, "unit": "fL"}, {"measurement": "Monocytes", "setting": "Wistar rats [4]; [11]", "result": 2.4, "unit": "%"}, {"measurement": "PCV (packed cell volume)", "setting": "Wistar rats [4]; [11]", "result": 41.2, "unit": "%"}, {"measurement": "Eosinophils", "setting": "Wistar rats [4]; [12]", "result": 1.1, "unit": "%"}, {"measurement": "MCH (mean corpuscular haemoglobin)", "setting": "Wistar rats [4]; [12]", "result": 20.7, "unit": "pg"}, {"measurement": "MCV (mean cell volume)", "setting": "Wistar rats [4]; [12]", "result": 63.3, "unit": "fL"}, {"measurement": "Monocytes", "setting": "Wistar rats [4]; [12]", "result": 3.0, "unit": "%"}, {"measurement": "PCV (packed cell volume)", "setting": "Wistar rats [4]; [12]", "result": 43.3, "unit": "%"}, {"measurement": "HGB content vs control", "setting": "Wistar rats [4]; [13]", "result": "no significant difference"}, {"measurement": "WBC counts vs control", "setting": "Wistar rats [4]; [13]", "result": "no significant difference"}, {"measurement": "lymphocytes count vs control", "setting": "Wistar rats [4]; [13]", "result": "no significant difference"}, {"measurement": "neutrophils count vs control", "setting": "Wistar rats [4]; [13]", "result": "no significant difference"}, {"measurement": "total number of RBC vs control", "setting": "Wistar rats [4]; [13]", "result": "no significant difference"}, {"measurement": "time at which maximum circulating concentration (Cmax) was obtained", "setting": "[5]; 10 mg/kg intraperitoneal", "result": 30, "unit": "min"}, {"measurement": "clearance rate (CL)", "setting": "[5]", "result": 6.3, "unit": "mL/min/kg"}, {"measurement": "t1/2", "setting": "[5]", "result": 2.3, "unit": "h"}, {"measurement": "disruption of BCL2-BAX interaction", "setting": "[6]", "result": "did not disrupt the interaction of BCL2 with BAX"}, {"measurement": "tumor regression", "setting": "mice tumor models; mice, intraperitoneal route", "result": "efficient tumor regression comparable to that of ABT199"}, {"measurement": "tumor progression", "setting": "mice tumor models; oral administration, multiple mice tumor models", "result": "significant reduction in tumor progression"}]}]}
